Results on four compounds are retold here after publication PMC13144739, “Global analysis of cancer cell responses to USP9X inhibition” (The EMBO Journal, 2026).

Data set [1] addresses T1, USP9X catalytic domain (Homo sapiens, UniProt Q93008).
T1 construct: His/SUMO (pOPIN-S vector) (N, cleaved yes); made in house; host or cells: E. coli BL21
T1 sequence (Q93008 1551-1970): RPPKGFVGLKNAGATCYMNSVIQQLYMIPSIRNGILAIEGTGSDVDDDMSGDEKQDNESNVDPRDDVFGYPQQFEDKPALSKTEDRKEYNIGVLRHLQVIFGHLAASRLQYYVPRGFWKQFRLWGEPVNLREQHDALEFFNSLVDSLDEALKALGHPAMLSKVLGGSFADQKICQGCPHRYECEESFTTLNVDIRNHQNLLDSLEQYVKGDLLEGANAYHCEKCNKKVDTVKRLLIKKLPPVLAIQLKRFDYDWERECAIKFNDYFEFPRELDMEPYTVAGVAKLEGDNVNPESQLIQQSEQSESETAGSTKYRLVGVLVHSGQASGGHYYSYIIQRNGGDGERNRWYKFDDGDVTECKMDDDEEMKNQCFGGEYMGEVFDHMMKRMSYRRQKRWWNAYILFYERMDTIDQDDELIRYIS
Briefly: K48-linked di-ubiquitin cleavage assay. The note with it: reported USP9X inhibitors; Appendix Fig. S1B,E (diUb cleavage 150 µM, Ub-Rho). The format is biochemical. Here is the method:
For inhibitor activity assays, USP9X catalytic domain (di-ubiquitin cleavage assay: 750 nM, ubiquitin-probe assays: 2.5 µM) was pre-incubated with USP9X inhibitors for 30 min at ambient temperature and subsequently mixed with di-ubiquitin (final concentration 2 µM) in assay buffer (25 mM Tris [pH 8.0], 150 mM NaCl, 10 mM DTT) at pH 8.0 or was mixed with ubiquitin-propargylamide (Ub-PA)/ubiquitin-vinyl sulfonate (Ub-VS) probes at a final concentration of 10 µM in assay buffer. For both assays, the mixture was incubated over a time course, and the reaction was stopped by mixing samples with 2× LDS sample buffer (Invitrogen) supplemented with 3% (v/v) 2-mercaptoethanol. All protein samples were run on a 4–12% Bis-Tris SDS-PAGE gradient gel (Invitrogen) for 60 min at 140 V. The gel was stained with InstantBlue® (Abcam) and imaged.

Data set [2] relates to human dermal fibroblasts (HDF). Briefly: IncuCyte live-cell imaging cell death, HDF. In kind it is cell-based. The note with it: 50 µM (Appendix Fig. S4E). As to the method: Cells were seeded at varying densities (1000–8000 cells per well) after initial optimisation in a 96-well tissue culture-treated plate (Thermo Fisher Scientific). Cells were incubated o/n, and the next day, inhibitors and controls diluted in cell media were added to the cells to a final volume of 200 μL per well. Cell death was measured using PI (Sigma-Aldrich). Cells were imaged with four images per well every 2 h for up to 96 h using the IncuCyte live-cell analysis system (S3, Sartorius). Cell proliferation data were analysed using Microsoft Excel by normalising confluence to control conditions. For cell killing readouts, the number of PI-positive cells was normalised to the control conditions for each timepoint.

In data set [3] the target is T1, USP9X catalytic domain. The data set is described as follows: Ub-Rho cleavage assay. The format is biochemical. The note with it: Ub-Rho cleavage, recombinant USP9X catalytic domain (WT). As to the method: The reaction was stopped through the addition of 10 mM citric acid. The assay was performed in 384-well format with a total reaction volume of 16 µL. Data was collected using the ClarioSTAR plate reader (BMG Labtech) at an emission of 535 nm. […] IC50 values presented in our study are the mean of three independent biological repeats unless indicated otherwise.

For data set [4], the target named is T1, USP9X catalytic domain. Briefly: SPR binding assay. Here is the method:
Next, the sample was desalted using PD midiTrap™ G-25 (GE Healthcare) columns following the manufacturer’s instructions and was further purified by SEC, concentrated, and stored at -80 °C. Enzyme activity was tested in a ubiquitin-probe assay. SPR experiments were performed on a Biacore 8 K+ instrument (Cytiva). USP9X catalytic domain with a C-terminal AviTag™ was immobilised in 10 mM HEPES, 150 mM NaCl at pH 7.4 on a Series S Sensor Chip SA (Cytiva) by coupling. […] Running buffer was supplemented with 2% (v/v) DMSO. Multi-cycle kinetics were performed with 120 s associations and 600 s dissociations at 30 µL/min with no further regeneration. Binding constants were determined in Biacore Insight evaluation software (v5.0.18) at steady state, taking the median response over a 5-s window beginning at 10 s before the end of the association phase. Final KD values are the mean of three independent experiments.

`CCCC(NC(=O)/C(C#N)=C/c1nc(Cl)ccc1Cl)c1ccc(OCCN2CCOCC2)cc1` (centres unmarked) [EOAI3402143]: in data set [1], the “effects on the purified USP9X catalytic domain” value is listed as “no or weak effects”. Moreover, the “toxicity to HDFs” value in data set [2] was “cytotoxic”.
The term IC50 denotes the concentration that gives 50% inhibition. Regarding `O=S(=O)(c1ccc2c(c1)OCCO2)N1CCN(c2ccc(-c3ccccc3)nn2)CC1` [WEHI-871], the IC50 in data set [3] is more than 100 µM.
Usually Kd stands for the free concentration of one partner at which half of the binding sites on the other are occupied at equilibrium, for simple one-to-one binding. Regarding `O=C(c1ccc2[nH]ccc2c1)N1CCN(S(=O)(=O)c2ccc3c(c2)OCCO3)CC1` [WEHI-680], the Kd in data set [4] (SPR, steady state, mean of three repeats, read-out: KD (steady state affinity)) was determined as 3.51 ± 0.58 µM. The “SPR kinetic fitting (on-rate/off-rate)” value in data set [4] (compared with the WEHI compound series / WEHI-092) is reported as “much faster off-rate”. In addition, the IC50 in data set [3] came to 4.3 µM.
Regarding `CCC[C@H](NC(=O)/C(C#N)=C/c1cccc(Br)n1)c1ccccc1` [WP1130], in data set [1], the “effects on the purified USP9X catalytic domain” value is “no or weak effects”. Moreover, the “toxicity to HDFs” value in data set [2] is recorded as “cytotoxic”.
